The target of this experiment is T1, human 5-HT4(a) (Homo sapiens, UniProt Q13639).
T1 construct: host or cells: GeneBIAzer HTR4-CRE-bla CHO-K1 cells
Nature of the experiment: Evaluation of agonistic activity in CHO-K1 cells expressing human 5-HT4(a) (GeneBIAzer HTR4-CRE-bla CHO-K1 cells, beta-lactamase fluorescence ratio, EC50 from 8 concentrations). Format: cell-based. As for the experimental part:
Evaluation of Agonistic Activity in CHO-K1 Cells Expressing Human 5-HT4(a)
As CHO-K1 cells stably expressing human 5-HT4(a), we used the GeneBIAzer HTR4-CRE-bla CHO-K1 cells (Invitrogen Corp.). The cells were cultured, under the condition of 37° C. and 5% CO2, in a DMEM supplemented with 10% fetal bovine serum (FBS), 25 mM HEPES (pH7.4), 600 μg/ml hygromycin B, 0.1 mM non-essential amino acids, 100 unit/ml penicillin and 100 μg/ml streptomycin. Subcultures were performed three times per one week, each being at less than 80% confluence. At the previous day before treating test compounds, the cells were collected using 0.5% trypsin/EDTA and then diluted with a DMEM supplemented with 1% FBS, 25 mM HEPES, and 0.1 mM non-essential amino acids into 3.125×10^5 cells/ml. 32 μl of the diluted cells were added into 384-well plate (10^4 cells per well) and then incubated overnight. After the overnight culture, 8 μl of the medium having 1% of DMSO was added into the cell-free control well and the non-stimulating control well, respectively. 8 μl of the respective test compound dilutions (which had been prepared by diluting by 100-times with the medium as mentioned in the above) having 1% of DMSO were added to the respective remaining wells. After being cultured in the incubator for 5 hours, the wells of the 384-plate were treated with the substrate solution (8 μl per well) prepared according to the vendor's instruction (i.e., Invitrogen's instruction), and then incubated in the dark room for additional two hours. Agonistic activities on 5-HT4 receptor were evaluated, on the basis of fluorescence values of the cleavage-products by beta-lactamase. After exciting to 410 nm of wavelength using a fluorescence detector (Genios Pro), we measured the fluorescence values at two emission wavelengths (first wavelength: 465 nm, second wavelength: 535 nm). Data were analyzed on the basis of the ratio of fluorescence intensities of each well at the respective wavelengths. Each EC50 value was calculated by non-linear regression analysis using the “GraphPad Prism” program, based on the activities according to 8-different concentrations of the test compounds.

Where a name gives a salt, the structure may show the parent alone.

T1 sequence (Q13639 1-387 isoform Q13639-2): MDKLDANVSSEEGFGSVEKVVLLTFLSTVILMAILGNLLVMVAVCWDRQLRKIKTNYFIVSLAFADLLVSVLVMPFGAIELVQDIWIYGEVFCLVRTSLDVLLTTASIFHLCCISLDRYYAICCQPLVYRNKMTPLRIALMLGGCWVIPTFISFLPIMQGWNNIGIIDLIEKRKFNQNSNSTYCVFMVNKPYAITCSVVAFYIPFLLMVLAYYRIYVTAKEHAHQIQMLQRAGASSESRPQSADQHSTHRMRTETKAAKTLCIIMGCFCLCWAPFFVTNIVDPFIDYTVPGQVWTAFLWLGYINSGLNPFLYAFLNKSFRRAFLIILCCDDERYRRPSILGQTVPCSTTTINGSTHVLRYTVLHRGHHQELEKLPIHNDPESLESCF

For `CCCCc1cc(N2CCC[C@@H](N)C2)nc(Nc2ccc(F)c(C(F)(F)F)c2)n1` [Example 348, (R)-4-(3-aminopiperidin-1-yl)-6-butyl-N-[4-fluoro-3-(trifluoromethyl)phenyl]pyrimidin-2-amine], the EC50 was 102 pM.
For `CCCc1cc(N2CCNC[C@H]2C)nc(Nc2cc(N)cc(C#N)c2)n1` [Example 129, (R)-3-amino-5-[4-(2-methylpiperazin-1-yl)-6-propylpyrimidin-2-ylamino]benzonitrile], the EC50 was 4.1 pM.
To `CCCc1cc(N2CCC[C@@H](NC(C)=O)C2)nc(Nc2cc(N)cc(C(F)(F)F)c2)n1` [Example 278, (R)—N-(1-{2-[3-amino-5-(trifluoromethyl)phenylamino]-6-propylpyrimidin-4-yl}piperidin-3-yl)acetamide] belongs 10 pM; to `CCCc1cc(N2CCC[C@@H](NC(=O)CO)C2)nc(Nc2cccc(C#N)c2)n1` [Example 245, (R)—N-{1-[2-(3-cyanophenylamino)-6-propylpyrimidin-4-yl]piperidin-3-yl}-2-hydroxyacetamide], 47 pM.
To `CCCc1cc(N2CCC[C@@H](N)C2)nc(Nc2cc(N)cc(C(F)(F)F)c2)n1` [Example 256, (R)—N^1-[4-(3-aminopiperidin-1-yl)-6-propylpyrimidin-2-yl]-5-(trifluoromethyl)benzene-1,3-diamine] belongs 12 pM; to `CCCc1cc(N2CCC[C@@H](NC)C2)nc(Nc2ccc(C)c(C)c2)n1` [Example 322, (R)—N-(3,4-dimethylphenyl)-4-[3-(methylamino)piperidin-1-yl]-6-propylpyrimidin-2-amine], 243 pM; to `CCCCc1cc(N2CCC[C@@H](NC(C)=O)C2)nc(Nc2ccc(N)c(C#N)c2)n1` [Example 243, (R)—N-{1-[2-(4-amino-3-cyanophenylamino)-6-butylpyrimidin-4-yl]piperidin-3-yl}acetamide], 9.4 pM.
Under `CCCc1cc(N2CCC[C@@H](NC)C2)nc(Nc2ccc(C)c(C#N)c2)n1` [Example 283, (R)-2-methyl-5-[4-(3-methylaminopiperidin-1-yl)-6-propylpyrimidin-2-ylamino]benzonitrile] stands 8.4 pM; under `CCCCc1cc(N2CCCCC2CCO)nc(Nc2ccc(F)cc2)n1` (centres unmarked) [Example 22, 2-{1-[6-butyl-2-(4-fluorophenylamino)pyrimidin-4-yl]piperidin-2-yl}ethanol], 190 pM; under `CCCc1cc(N2CCNC[C@H]2C)nc(Nc2ccc(N)c(C(F)(F)F)c2)n1` [Example 124, (R)-N^1-[4-(2-methylpiperazin-1-yl)-6-propylpyrimidin-2-yl]-3-(trifluoromethyl)benzene-1,4-diamine], 28 pM.
As for `CCCc1cc(N2CCC[C@@H](NCc3cc(C)c(C)o3)C2)nc(Nc2ccc(C)c(C#N)c2)n1` [Example 215, (R)-5-(4-{3-[(4,5-dimethylfuran-2-ylmethyl)amino]piperidin-1-yl}-6-propylpyrimidin-2-ylamino)-2-methylbenzonitrile], the EC50 turned out to be 64 pM.
Under `CCCc1cc(N2CCCCC2CCO)nc(Nc2cccc([N+](=O)[O-])c2)n1` (centres unmarked) [Example 141, 2-{1-[2-(3-nitrophenylamino)-6-propylpyrimidin-4-yl]piperidin-2-yl}ethanol] stands 150 pM; under `CCCc1cc(N2CCC[C@@H](NCC3CC3)C2)nc(Nc2ccc(F)c(N)c2)n1` [Example 227, (R)—N^1-{4-[3-(cyclopropylmethylamino)piperidin-1-yl]-6-propylpyrimidin-2-yl}-4-fluorobenzene-1,3-diamine], 17 pM; under `CCCc1cc(N2CCC[C@@H](NC(C)=O)C2)nc(Nc2ccc(C)c(C#N)c2)n1` [Example 220, (R)—N-{1-[2-(3-cyano-4-methylphenylamino)-6-propylpyrimidin-4-yl]piperidin-3-yl}acetamide], 8.2 pM.
To `CCCCc1cc(N2CCC[C@@H](NC(C)=O)C2)nc(Nc2ccc(F)c([N+](=O)[O-])c2)n1` [Example 234, (R)—N-{1-[6-butyl-2-(4-fluoro-3-nitrophenylamino)pyrimidin-4-yl]piperidin-3-yl}acetamide] belongs 15 pM; to `CCCCc1cc(N2CCC[C@@H](NC(C)=O)C2)nc(Nc2cccc(C#N)c2)n1` [Example 272, (R)—N-{1-[6-butyl-2-(3-cyanophenylamino)-pyrimidin-4-yl]-piperidin-3-yl}-acetamide hydrochloride], 11 pM.
Take `CCCCc1cc(N2CCC[C@@H](N)C2)nc(Nc2ccc(C)c(OC)c2)n1` [Example 345, (R)-4-(3-aminopiperidin-1-yl)-6-butyl-N-(3-methoxy-4-methylphenyl)pyrimidin-2-amine]: the EC50 turned out to be 80 pM.
To `CCCc1cc(N2CCC[C@@H](NCC3CC3)C2)nc(Nc2cc(N)cc(C(F)(F)F)c2)n1` [Example 231, (R)—N^1-{4-[3-(cyclopropylmethylamino)piperidin-1-yl]-6-propylpyrimidin-2-yl}-5-(trifluoromethyl)benzene-1,3-diamine] belongs 6.3 pM; to `CCCc1cc(N2CCC[C@@H](NC)C2)nc(Nc2ccc(N)c([N+](=O)[O-])c2)n1` [Example 321, (R)—N^1-{4-[3-(methylamino)piperidin-1-yl]-6-propylpyrimidin-2-yl}-3-nitrobenzene-1,4-diamine dihydrochloride], 3.1 pM; to `CCCc1cc(N2CCNC[C@H]2C)nc(Nc2ccc(F)c(N)c2)n1` [Example 123, (R)-4-fluoro-N^1-[4-(2-methylpiperazin-1-yl)-6-propylpyrimidin-2-yl]benzene-1,3-diamine], 121 pM.
Consider `CCCc1cc(N2CCC[C@@H](NCc3cccs3)C2)nc(Nc2ccc(C)c(C#N)c2)n1` [Example 214, (R)-2-methyl-5-(4-propyl-6-{3-[(thiophen-2-ylmethyl)amino]piperidin-1-yl}pyrimidin-2-ylamino)benzonitrile], for which the EC50 stood at 72 pM.
To `CCCc1cc(N2CCC[C@@H](N)C2)nc(Nc2ccc(C)c(C(F)(F)F)c2)n1` [Example 263, (R)-4-(3-aminopiperidin-1-yl)-N-[4-methyl-3-(trifluoromethyl)phenyl]-6-propylpyrimidin-2-amine] belongs 7.2 pM.
To `CCCc1cc(N2CCCC3CCCCC32)nc(Nc2ccc(Cl)c([N+](=O)[O-])c2)n1` (centres unmarked) [Example 190, N-(4-chloro-3-nitrophenyl)-4-(octahydroquinolin-1(2H)-yl)-6-propylpyrimidin-2-amine] belongs 460 pM; to `CCCCc1cc(N2CCC[C@@H](NC(C)=O)C2)nc(Nc2cc(N)cc(C#N)c2)n1` [Example 236, (R)—N-{1-[2-(3-amino-5-cyanophenylamino)-6-butylpyrimidin-4-yl]piperidin-3-yl}acetamide], 8.8 pM; to `CCCc1cc(N2CCC[C@@H](NC)C2)nc(Nc2ccc(C)c(N)c2)n1` [Example 310, (R)-4-methyl-N^1-{4-[3-(methylamino)piperidin-1-yl]-6-propylpyrimidin-2-yl}benzene-1,3-diamine], 47 pM.
To `CCCc1cc(N2CCNC[C@H]2C)nc(Nc2ccc(C)c(C#N)c2)n1` [Example 126, (R)-2-methyl-5-[4-(2-methylpiperazin-1-yl)-6-propylpyrimidin-2-ylamino]benzonitrile] belongs 13 pM; to `CCCCc1cc(N2CCC[C@@H](NC)C2)nc(Nc2ccc(N)c(C(F)(F)F)c2)n1` [Example 314, (R)—N^1-{4-butyl-6-[3-(methylamino)piperidin-1-yl]pyrimidin-2-yl}-3-(trifluoromethyl)benzene-1,4-diamine], 1.9 pM.
As for `CCCc1cc(N2CCCCC2CC)nc(Nc2ccc3nc(C(F)(F)F)[nH]c3c2)n1` (centres unmarked) [Example 109, N-[4-(2-ethylpiperidin-1-yl)-6-propylpyrimidin-2-yl]-2-(trifluoromethyl)-1H-benzo[d]imidazol-6-amine], the EC50 worked out at 320 pM.
Under `CCCc1cc(N2CCC[C@@H](NC)C2)nc(Nc2cc(N)cc(C#N)c2)n1` [Example 286, (R)-3-amino-5-[4-(3-methylaminopiperidin-1-yl)-6-propylpyrimidin-2-ylamino]benzonitrile] stands 4.4 pM; under `CCCCc1cc(N2CCC[C@@H](NCC(C)(C)C)C2)nc(Nc2ccc(C)c(C#N)c2)n1` [Example 304, (R)-5-({4-butyl-6-[3-(neopentylamino)piperidin-1-yl]pyrimidin-2-yl}amino)-2-methylbenzonitrile], 49 pM; under `CCCc1cc(N2CCCC3CCCCC32)nc(Nc2ccc(F)c([N+](=O)[O-])c2)n1` (centres unmarked) [Example 189, N-(4-fluoro-3-nitrophenyl)-4-(octahydroquinolin-1(2H)-yl)-6-propylpyrimidin-2-amine], 320 pM.
As to `CCCc1cc(N2CCNC[C@H]2C)nc(Nc2cccc(C(F)(F)F)c2)n1` [Example 119], the EC50 stood at 156 pM.

What is called EC50 is the concentration giving half of the maximal effect.
